In PubChem BioAssay (NCI):
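1) Cells in 96-well plates. 2) Compound, 48 h, 5 concentrations. 3) Linear interpolation between surrounding doses. 4) Unreached endpoint = highest concentration. Here, GI50 denotes the concentration required for 50% inhibition of growth. The concentration for full growth arrest is given as TGI.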

The molecules below were run on MDA-MB-468 breast (assay: NCI-60 cell line screen, 48 h).

| SMILES | GI50 | TGI |
| --- | --- | --- |
| CCNC(=O)N1CCc2cc(OC)c(OCCc3ccc(OC)cc3)cc2C1c1ccc(Cl)cc1C (stereo unspecified) | 2.01 µM | 6.43 µM |
| COc1ccc2c(c1)c(/C=N/Nc1ccnc3cc(Cl)ccc13)cn2C | 0.217 µM | 0.456 µM |
| C#Cc1ccc(-n2c(/C=C/c3ccc(O)cc3)nc3ncccc3c2=O)cc1 | 2.31 µM | 7.08 µM |
| COc1ccc(C(O)c2cc3c(N)c(C(=O)Nc4cccc5ccccc45)sc3nc2C)cc1 (stereo unspecified) | 2.64 µM | > 100 µM |
| COCCN(Cc1ccc(F)cc1)c1ccc(CO)c(Cl)c1 | 0.0406 µM | 0.163 µM |
| COc1ccccc1Oc1nccc(-c2c(-c3ccc(F)cc3)ncn2C2CCNCC2)n1 | 3.17 µM | 14.3 µM |
| CC(C)[C@@H]1CC[C@]2(CO2)[C@@H]2C(=O)OCC(C(=O)O)=C[C@H]21 | 0.443 µM | > 27.2 µM |
| COc1ccccc1C1c2cc3c(cc2OC2(OC)COC(=O)C12)OCO3 (stereo unspecified) | 20.2 µM | 95.4 µM |
| COc1ccc(/C=C2\CCC/C(=C\c3ccc(OC)c(OC)c3)C2=O)cc1OC | 0.94 µM | 5.47 µM |
| CCN(CC)c1ccc2nc3ccc(=[N+](CC)CC)cc-3oc2c1 | 0.0631 µM | 0.231 µM |
| Clc1ccc2oc3c(NCCCn4ccnc4)c4ccccc4nc3c2c1 | 14.7 µM | 69.2 µM |
| COc1ccc(-c2nc3ccc(Cc4ccc5nc(-c6ccc(OC)cc6)[nH]c5c4)cc3[nH]2)cc1 | 0.026 µM | 0.155 µM |
| Cc1cc(Br)c(NC(=O)c2c(-c3c(Cl)cccc3Cl)noc2C)c(Br)c1 | > 100 µM | > 100 µM |
| Fc1ccc(NC(c2ccc(F)cc2)C2CCN(CCCCc3ccccc3)CC2)cc1 (stereo unspecified) | 1.72 µM | 3.43 µM |
| CCSCC1CC(O)(c2ccccc2)C(c2ccccc2)C(c2ccc(F)cc2)O1 (stereo unspecified) | 2.94 µM | 10.4 µM |
| COCCOC1=C(Cl)C(=O)c2ccccc2C1=O | 1.59 µM | 3.22 µM |
| CCCCCC(=O)O[C@]1(C(C)=O)CCC2C3CCC4=CC(=O)CC[C@]4(C)C3CC[C@@]21C (stereo partly specified) | 1.73 µM | 6.79 µM |
| CC(=O)NC1C(O[C@H]2C[C@H]3[C@@H]4CC=C5C[C@@H](O)CC[C@]5(C)[C@H]4CC[C@]3(C)[C@H]2[C@H](C)C(=O)CCC(C)C)OCC(O)C1O (stereo partly specified) | 3.34 µM | 10.4 µM |
| CCCCS(=O)c1sc2nc(-c3cccs3)cc(-c3ccccc3)c2c1N (stereo unspecified) | 9.93 µM | 67.3 µM |
| Cc1cc(Cl)nc(N(CCNc2ccnc3cc(Cl)ccc23)Cc2ccco2)n1 | 1.62 µM | 3.46 µM |
| Cn1ccnc1C(=O)/C=C/C=C/c1ccc(C(=O)Nc2ccc(F)cc2)cc1 | 1.51 µM | 10.5 µM |
| ClCCOCCn1cnc2c(Cl)nc(Cl)nc21 | 3.16 µM | 25 µM |

| SMILES | GI50 | TGI |
| --- | --- | --- |
| COc1ccc(-c2[nH]c3ccc(OC)cc3c2C=C(C#N)C#N)cc1 | 0.494 µM | > 100 µM |
| O=C(Nc1ccc(OC(F)(F)Cl)cc1)c1cnc(N2CC[C@@H](O)C2)c(-c2ccn[nH]2)c1 | 4.89 µM | 23.1 µM |
| Cc1cnc(C(=O)NNc2nc3sc4c(c3c(=O)[nH]2)C(C)CCC4)cn1 (stereo unspecified) | 1.81 µM | 6.08 µM |
| Cc1cccc(Cn2cc(CO)c3cnccc32)c1 | 6.34 µM | 43.3 µM |
| CN1CCN(c2c(F)cc(NC3=C(Cl)C(=O)c4ncccc4C3=O)cc2F)CC1 | 1.36 µM | 3.21 µM |
| Nc1nccc(-c2c(-c3ccc(F)cc3)nn3cc(C(F)(F)F)ccc23)n1 | > 25 µM | > 25 µM |
| Nc1nc(=S)c2ncn(C3OC(COP(=O)(O)O)C(O)C3O)c2[nH]1 (stereo unspecified) | 0.478 µM | 6.3 µM |
| COc1ccccc1CNCCN1C(=O)c2ccc3c4c(ccc(c24)C1=O)C(=O)N(CCNCc1ccccc1OC)C3=O | 0.426 µM | 0.893 µM |
| O=C1c2cc3c(cc2-c2c1c1ccc(Cl)cc1c(=O)n2C[C@H](O)CO)OCO3 | 0.0174 µM | 0.0553 µM |
| CC(=O)Oc1ccc(C2=Cc3ccc(OC(C)=O)cc3OC2C)cc1 (stereo unspecified) | 5.96 µM | 51.4 µM |
| CC[C@H](C)[C@H](NC(=O)[C@H]1CCCCN1C)C(=O)N(C)[C@H](C[C@@H](OC(C)=O)c1nc(C(=O)NC23CC(C(=O)OC)(C2)C3)cs1)C(C)C | 0.000292 µM | 0.0714 µM |
| O=C(COc1ccc(/C=C2\Oc3ccccc3C2=O)cc1)Nc1nc2ccccc2s1 | 0.487 µM | 75.2 µM |
| CCCCCCCCCCCCCCNC(=O)Nc1ccc(Cl)c(Cl)c1 | 2.82 µM | 9.82 µM |
| CCc1ccc(Nc2cc(C)c3ccc(O)cc3n2)cc1 | 3.57 µM | 12.8 µM |
| COc1ccc(-c2cc(/C=C/C(=O)c3ccc(N)cc3)[nH]n2)cc1OC | 1.55 µM | 3.48 µM |
| CNCc1ccc(-c2cc(-c3nc(-c4ccc(S(=O)(=O)C(C)C)cc4)cnc3N)on2)cc1 | 2.26 µM | 20.3 µM |
| COc1cc(-c2nccc3[nH]c(-c4ccc5cc[nH]c5c4)nc23)cc(OC)c1OC | 0.0176 µM | 1.56 µM |
| CCC(c1ccccc1)c1noc(CCN(CC)CC)n1 (stereo unspecified) | 2.46 µM | 8.05 µM |
| COc1cc(/C=C/c2cc(/C=C/c3ccc(O)c(OC)c3)n(C(=O)c3ccccc3Br)n2)ccc1O | 2.24 µM | 5.81 µM |
| COc1cc2nnc3c4cccnc4[nH]c3c2cc1OC | 0.225 µM | 1.22 µM |
| S=C1SCN(Cc2ccccc2)CN1Cc1ccco1 | 1.04 µM | 13.5 µM |
